Results published in patent US6063587A, “Water-soluble tetrazolium salt compounds” (Dojindo Laboratories Co., Ltd., priority 1996, dated 2000).

How the values were obtained:
[1] = Storage stability test (absorbance of aqueous buffer solution at 460 nm); assay type: physicochemical; settings: 1 mM in 50 mM Tris buffer (pH 8.0), stored at 4° C. for 0, 1, 7, 14, 31 and 90 days
Procedure: 50 mM Tris buffer (pH 8.0) containing 1 mM of Compound a was stored at 4° C. for 0, 1, 7, 14, 31 and 90 days, and absorbances at 460 nm were measured. At the same time, the compound of the above general formula (2) described in Japanese Patent Unexamined Publication No.(Hei) 7-70092/1995 wherein both R^1 and R^2 are nitro groups (Compound b: see, the section of "Background Art") was stored in the same manner, and changes of absorbance were measured.

[2] = background statement; cited from earlier work

Row | SMILES | changes of absorbance at 460 nm on storage [1] | water solubility of formazan compound [2]
1 | O=[N+]([O-])c1ccc(-n2nc(-c3ccc(S(=O)(=O)O)cc3S(=O)(=O)[O-])n[n+]2-c2ccc(I)cc2)c([N+](=O)[O-])c1 [Compound b] | remarkable increases of absorbance | 
2 | COc1cc(-c2ccc(-n3nc(-c4ccccc4)n[n+]3-c3ccc([N+](=O)[O-])cc3)c(OC)c2)ccc1-n1nc(-c2ccccc2)n[n+]1-c1ccc([N+](=O)[O-])cc1 [nitro-TB, 3,3'-[3,3'-dimethoxy-(1,1'-biphenyl)-4,4'-diyl]-bis[2-(4-nitrophenyl)-5-phenyl]-2H-tetrazolium chloride] |  | low water solubility
